Data on 32 compounds can be found in ChEMBL document CHEMBL5365471, “Discovery of marine phidianidine-based Nrf2 activators and their potential against oxLDL- and HG-induced injury in HUVECs” (Bioorg Med Chem Lett, 2023).

The target in data set [1] is T1, Nuclear factor erythroid 2-related factor 2 (Homo sapiens) (UniProt Q16236).
T1 sequence (whole entry): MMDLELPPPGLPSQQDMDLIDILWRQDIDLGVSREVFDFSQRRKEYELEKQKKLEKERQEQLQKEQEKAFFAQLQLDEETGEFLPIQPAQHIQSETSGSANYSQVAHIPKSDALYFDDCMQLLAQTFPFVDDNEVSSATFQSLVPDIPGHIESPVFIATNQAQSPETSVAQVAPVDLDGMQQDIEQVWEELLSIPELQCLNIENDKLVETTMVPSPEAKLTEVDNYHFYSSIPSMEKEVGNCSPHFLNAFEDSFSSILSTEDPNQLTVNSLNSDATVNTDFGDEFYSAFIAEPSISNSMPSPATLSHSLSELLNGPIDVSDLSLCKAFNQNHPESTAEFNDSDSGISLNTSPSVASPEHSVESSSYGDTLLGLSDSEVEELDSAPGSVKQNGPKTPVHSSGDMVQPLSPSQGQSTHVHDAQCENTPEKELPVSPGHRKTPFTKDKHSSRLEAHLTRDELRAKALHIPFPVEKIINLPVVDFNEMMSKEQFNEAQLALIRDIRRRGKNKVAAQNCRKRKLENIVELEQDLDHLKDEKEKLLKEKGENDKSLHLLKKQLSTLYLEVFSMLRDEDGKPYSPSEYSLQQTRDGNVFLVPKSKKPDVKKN
Description: Induction of Nrf2/ARE activation in human Hela cells at 5 uM measured after 12 to 24 hrs by luciferase reporter gene assay relative to control. Format: cell-based. The following applies: filed as activator, time 12-24 hrs.

Data set [2] addresses T1, Nuclear factor erythroid 2-related factor 2 (Homo sapiens). In words: Induction of Nrf2/ARE activation in human Hela cells at 10 uM measured after 12 to 24 hrs by luciferase reporter gene assay relative to control. Format: cell-based. The following applies: filed as activator, time 12-24 hrs.
Data set [3] shares this target. Description: Induction of Nrf2/ARE activation in human Hela cells at 1 uM measured after 12 to 24 hrs by luciferase reporter gene assay relative to control. Format: cell-based. The following applies: filed as activator, time 12-24 hrs. For orientation: A reporter such as luciferase makes a cellular process visible.
Data set [4] shares this target. Description: Induction of Nrf2/ARE activation in human Hela cells at 20 uM measured after 12 to 24 hrs by luciferase reporter gene assay relative to control. The settings on record: filed as activator, time 12-24 hrs. Format: cell-based.
For data set [5], the system named is HUVEC. In words: Cytotoxicity against HUVEC assessed as effect on cell viability by SRB assay. Format: toxicity, cell-based. The settings on record: human.
Data set [6] relates to HUVEC. Description: Cytoprotective activity against oxLDL-induced HUVEC cell damage assessed as increase in cell viability at 10 uM by SRB assay. The data set is classed as functional, cell-based. The settings on record: Homo sapiens. (In general: In SRB staining, fixed cells bind dye roughly in proportion to their protein.)

The source made the active and inactive calls. The rule behind the calls is not given here.

With `Cc1ccc(C(=O)N2CCN(Cc3noc(Cc4c[nH]c5ccccc45)n3)CC2)cc1`, the fold change (FC) in data set [1] is 1.11; in data set [2], 1.23; in data set [3], 1.04; in data set [4], 1.36.

Consider `COc1cc(OC)c(OC)cc1/C=C/C(=O)N1CCN(Cc2noc(Cc3c[nH]c4ccccc34)n2)CC1`, for which the fold change (FC) in data set [1] is 2.79; in data set [2] it was 5.79; in data set [3], 1.32; in data set [4], 5.46. In addition, the Activity result in data set [5] was “Non-Toxic”. For the same compound, in data set [6], the outcome was inactive.

`COc1ccccc1/C=C/C(=O)N1CCN(Cc2noc(Cc3c[nH]c4ccccc34)n2)CC1`: the fold change (FC) in data set [1] is 2.41; in data set [2], 3.12; in data set [3], 1.23; in data set [4] it was 4.25.

With `c1ccc(CN2CCN(Cc3noc(Cc4c[nH]c5ccccc45)n3)CC2)cc1`, the fold change (FC) in data set [1] came to 1.51; in data set [2] it was 1.64; in data set [3], 1.09; in data set [4], 2.09.

Regarding `O=C(/C=C/c1cccc(O)c1)N1CCN(Cc2noc(Cc3c[nH]c4ccccc34)n2)CC1`, the fold change (FC) in data set [1] was 4.71; in data set [2], 7.04; in data set [3] it was 2.3; in data set [4], 7.21. The Activity entry in data set [5] is “Non-Toxic”. For the same compound, in data set [6], the outcome was Active.

On to `Brc1cccc(CN2CCN(Cc3noc(Cc4c[nH]c5ccccc45)n3)CC2)c1`, for which the fold change (FC) in data set [1] amounted to 1.25; in data set [2] it was 1.31; in data set [3], 1.12; in data set [4], 1.54.

For the compound `O=C(c1ccc(Br)cc1)N1CCN(Cc2noc(Cc3c[nH]c4ccccc34)n2)CC1`, the fold change (FC) in data set [1] turned out to be 1.21; in data set [2], 1.28; in data set [3] it was 1.15; in data set [4] it was 1.52.

In the case of `COc1ccc(OC)c(/C=C/C(=O)N2CCN(Cc3noc(Cc4c[nH]c5ccccc45)n3)CC2)c1`, the fold change (FC) in data set [1] came to 1.77; in data set [2], 4.35; in data set [3] it was 1.12; in data set [4], 3.66.

Regarding `COc1ccc(/C=C/C(=O)N2CCN(Cc3noc(Cc4c[nH]c5ccccc45)n3)CC2)cc1OC`, the fold change (FC) is 2.93 in data set [1], 5.79 in data set [2], 1.34 in data set [3] and 7.22 in data set [4].

For `Fc1cccc(CN2CCN(Cc3noc(Cc4c[nH]c5ccccc45)n3)CC2)c1`, the fold change (FC) turned out to be 1.42 in data set [1], 1.54 in data set [2], 1.36 in data set [3] and 1.86 in data set [4].

On to `COc1ccc(/C=C/C(=O)N2CCN(Cc3noc(Cc4c[nH]c5ccccc45)n3)CC2)cc1`, for which the fold change (FC) in data set [1] is 1.65; in data set [2], 1.96; in data set [3] it was 1.22; in data set [4] it was 2.07.

For the compound `O=C(/C=C/c1ccc(O)cc1)N1CCN(Cc2noc(Cc3c[nH]c4ccccc34)n2)CC1`, the fold change (FC) in data set [1] stood at 3.44; in data set [2], 6.25; in data set [3] it was 1.52; in data set [4], 5.41. In addition, the Activity entry in data set [5] is listed as “Non-Toxic”. The result in data set [6] was inactive.

As to `O=C(/C=C/c1ccccc1)N1CCN(Cc2noc(Cc3c[nH]c4ccccc34)n2)CC1`, the fold change (FC) in data set [1] was 1.32; in data set [2], 2.57; in data set [3], 1.05; in data set [4], 2.89.

For `COc1cccc(/C=C/C(=O)N2CCN(Cc3noc(Cc4c[nH]c5ccccc45)n3)CC2)c1OC`, the fold change (FC) in data set [1] was 3.65; in data set [2] it was 6.91; in data set [3], 2.15; in data set [4] it was 6.37. Besides, the Activity result in data set [5] is reported as “Non-Toxic”. Besides, the result in data set [6] was inactive.

Consider `COc1cc(/C=C/C(=O)N2CCN(Cc3noc(Cc4c[nH]c5ccccc45)n3)CC2)cc(OC)c1OC`, for which the fold change (FC) in data set [1] was 2.6; in data set [2], 6.23; in data set [3], 1.24; in data set [4], 6.86.

Regarding `O=C(c1ccccc1)N1CCN(Cc2noc(Cc3c[nH]c4ccccc34)n2)CC1`, the fold change (FC) stood at 1.31 in data set [1], 1.44 in data set [2], 1.03 in data set [3] and 1.21 in data set [4].

On to `O=C(/C=C/c1ccc(O)c(O)c1)N1CCN(Cc2noc(Cc3c[nH]c4ccccc34)n2)CC1`, for which the fold change (FC) was determined as 2.96 in data set [1], 6.92 in data set [2], 1.41 in data set [3] and 7.86 in data set [4].

With `COc1cc(/C=C/C(=O)N2CCN(Cc3noc(Cc4c[nH]c5ccccc45)n3)CC2)cc(OC)c1O`, the fold change (FC) was determined as 1.87 in data set [1], 2.65 in data set [2], 1.23 in data set [3] and 3.08 in data set [4].

As to `O=C(/C=C/c1ccc(Cl)cc1)N1CCN(Cc2noc(Cc3c[nH]c4ccccc34)n2)CC1`, the fold change (FC) in data set [1] came out at 2.24; in data set [2], 4.09; in data set [3] it was 1.21; in data set [4], 6.12. Also, the Activity entry in data set [5] is on record as “Non-Toxic”. Further, in data set [6], the outcome was Active.

Turning to `COc1cccc(CN2CCN(Cc3noc(Cc4c[nH]c5ccccc45)n3)CC2)c1`, the fold change (FC) in data set [1] was found to be 1.12; in data set [2] it was 1.43; in data set [3], 1.15; in data set [4] it was 1.47.

`CC(C)(C)c1cc(O)ccc1O`: the fold change (FC) in data set [1] worked out at 1.24; in data set [2], 1.98; in data set [3], 1.17; in data set [4], 2.78.

For the compound `Brc1ccc(CN2CCN(Cc3noc(Cc4c[nH]c5ccccc45)n3)CC2)cc1`, the fold change (FC) came to 2.16 in data set [1], 3.14 in data set [2], 1.45 in data set [3] and 3.56 in data set [4].

Consider `COc1cc(/C=C/C(=O)N2CCN(Cc3noc(Cc4c[nH]c5ccccc45)n3)CC2)ccc1O`, for which the fold change (FC) in data set [1] was determined as 2.34; in data set [2] it was 3.12; in data set [3], 1.29; in data set [4], 3.56.

As for `N#Cc1ccc(C(=O)N2CCN(Cc3noc(Cc4c[nH]c5ccccc45)n3)CC2)cc1`, the fold change (FC) in data set [1] stood at 1.25; in data set [2] it was 1.37; in data set [3], 1.18; in data set [4] it was 1.4.

As to `COc1cccc(/C=C/C(=O)N2CCN(Cc3noc(Cc4c[nH]c5ccccc45)n3)CC2)c1`, the fold change (FC) in data set [1] turned out to be 1.89; in data set [2], 2.97; in data set [3] it was 1.09; in data set [4], 4.07.

With `O=C(/C=C/c1ccc(Cl)c(Cl)c1)N1CCN(Cc2noc(Cc3c[nH]c4ccccc34)n2)CC1`, the fold change (FC) in data set [1] was 3.76; in data set [2] it was 6.64; in data set [3], 1.34; in data set [4], 7.09. The Activity result in data set [5] is “Non-Toxic”. Also, in data set [6], the result was Active.

With `Cc1ccc(CN2CCN(Cc3noc(Cc4c[nH]c5ccccc45)n3)CC2)cc1`, the fold change (FC) in data set [1] turned out to be 1.78; in data set [2], 2.11; in data set [3] it was 1.18; in data set [4], 2.45.

Consider `CS(=O)(=O)c1ccc(C(=O)N2CCN(Cc3noc(Cc4c[nH]c5ccccc45)n3)CC2)cc1`, for which the fold change (FC) in data set [1] was 1.5; in data set [2], 1.52; in data set [3] it was 1.45; in data set [4], 1.67.

For the compound `CS(=O)(=O)c1ccc(CN2CCN(Cc3noc(Cc4c[nH]c5ccccc45)n3)CC2)cc1`, the fold change (FC) came out at 2.04 in data set [1], 3.15 in data set [2], 1.11 in data set [3] and 3.78 in data set [4].

On to `O=C(/C=C/c1ccc2c(c1)OCO2)N1CCN(Cc2noc(Cc3c[nH]c4ccccc34)n2)CC1`, for which the fold change (FC) in data set [1] was found to be 2.07; in data set [2] it was 4.97; in data set [3] it was 1.12; in data set [4], 3.24.

Consider `O=C(/C=C/c1ccccc1O)N1CCN(Cc2noc(Cc3c[nH]c4ccccc34)n2)CC1`, for which the fold change (FC) was 3.01 in data set [1], 6.31 in data set [2], 1.2 in data set [3] and 6.08 in data set [4].

For `c1ccc2cc(CN3CCN(Cc4noc(Cc5c[nH]c6ccccc56)n4)CC3)ccc2c1`, the fold change (FC) in data set [1] is 1.51; in data set [2] it was 1.86; in data set [3], 1.09; in data set [4], 2.04.
